Structures are written as SMILES.

In this experiment the test system is LTB4 production in fresh human whole blood. The experiment in a line: FLAP Whole Blood Assay (Test B), inhibition of LTB4 production. Format: cell-based. The note with it: method B: 4 h incubation at 37° C., calcium ionophore A23187 stimulation. On the procedure: FLAP Whole Blood Assay (Test B)
Compounds were tested for the inhibition of LTB4 production in fresh human whole blood obtained by venapuncture using heparin to prevent clotting. 1.5 μL compounds or DMSO carrier were dispensed into the wells of a 96-well deep-well plate in 3-fold dilution series. 500 μL heparnised whole blood was then added followed by incubation at 37° C. for 30 min (method A) or 4 h (method B). 100 μL blood was subsequently transferred in triplicate to pre-dispensed 0.5 μL 2 mM calcium ionophore (calcimycin; A23187) in a second 96-well plate. Following incubation at 37° C. for 20 min, the assays were stopped by adding 10 μL of stop solution (100 mM EGTA, pH 7.4) and the plate was transferred to ice. The plate was centrifuged at 3000 rpm at 4° C. for 10 min and 10 μL plasma was transferred to a fresh 96 well plate containing 90 μL pre-dispensed EIA assay buffer (0.1 M phosphate buffer+0.1% BSA). LTB4 was then measured using reagents from a commercial EIA (Cayman Chemicals). […] Inhibition of LTB4 production was defined as the LTB4 level in the presence of a given concentration of test compound expressed as a % of the LTB4 level in the presence of DMSO. IC50 values were determined by plotting % inhibition versus log compound concentration and using a one site dose response model. […]

One may read the IC50 as the midpoint of a concentration-inhibition curve. Consider `Cc1cc(-c2ccc(C(=O)[C@@H]3CCCC[C@H]3C(=O)Nc3cnn4c3C(=O)NCC4)cc2)[nH]n1` [Compound (I), (1R,2R)-2-[4-(3-methyl-1H-pyrazol-5-yl)benzoyl]-N-(4-oxo-4,5,6,7-tetrahydropyrazolo[1,5-a]pyrazin-3-yl)cyclohexanecarboxamide], for which the IC50 is 40 nM.

These data come from patent US10689387B2, “Crystalline form of (1R,2R)-2-[4-(3-methyl-1H-pyrazol-5-yl)benzoyl]-N-(4-oxo-4,5,6,7-tetrahydropyrazolo[1,5-A]pyrazin-3-yl)cyclohexanecarboxamide” (AstraZeneca AB, priority 2016, dated 2020).
